From patent US10195179B2, “Spiro-lactam NMDA receptor modulators and uses thereof” (Aptinyx Inc., priority 2016, dated 2019)
Like-named read-outs stand apart in the source and are kept apart here.

Assays:
[1] = Microsomal stability, rat; format: in vitro ADME; settings: rat microsomes
Protocol: Microsomal stability for Compound AA and Compound BB was investigated. The following table indicates the percent of Compound AA and Compound BB remaining after 60 minutes.

rat = experiment: Positive emotional learning (PEL) test, 50-kHz USVs; format: in vivo; settings: administered one hour prior to PEL testing
Protocol: Experiments were conducted as described in Burgdorf et al., “The effect of selective breeding for differential rates of 50-kHz ultrasonic vocalizations on emotional behavior in rats,” Devel. Psychobiol., 51:34-46 (2009).
The PEL assay measures the acquisition of positive (hedonic) 50-kHz ultrasonic vocalizations (USVs) to a social stimulus, heterospecific rough and tumble play stimulation. Heterospecific rough-and-tumble play stimulation was administered by the experimenter's right hand. Animals received 3 min of heterospecific rough-and-tumble play that consisted of alternating 15 sec blocks of heterospecific play and 15 sec of no-stimulation. High frequency ultrasonic vocalizations (USVs) were recorded and analyzed by sonogram with Avasoft SASlab Pro (Germany) as previously described by Burgdorf et al., “Positive emotional learning is regulated in the medial prefrontal cortex by GluN2B-containing NMDA receptors,” Neuroscience, 192:515-523 (2011). Frequency modulated 50-kHz USVs that occurred during each of the no-stimulation periods were quantified to measure PEL. Animals were not habituated to play stimulation before testing. Positive emotional learning was measured during the conditioned stimulus (CS) trials preceding the tickle unconditioned stimulus (UCS) trials. […] Running speed for animals to self administer tickling at the end of the 3 min session was also measured.

[2] = Plasma protein binding assay, human; format: in vitro ADME; settings: read-out: Plasma Protein binding (% Bound) Plasma human (converted)
Protocol: (§1) Bound drug concentration in the brain was also investigated, and plasma protein binding assays were conducted. The following table (% bound) indicates results for Compound AA and Compound BB.

NR2A = NR2A (Homo sapiens, UniProt Q12879); experiment: Potentiation of [3H]MK-801 binding, wild-type NMDAR2A; parameters: species or system rat
Sequence of NR2A (Q12879 23-1464, species assumed, other chains not shown): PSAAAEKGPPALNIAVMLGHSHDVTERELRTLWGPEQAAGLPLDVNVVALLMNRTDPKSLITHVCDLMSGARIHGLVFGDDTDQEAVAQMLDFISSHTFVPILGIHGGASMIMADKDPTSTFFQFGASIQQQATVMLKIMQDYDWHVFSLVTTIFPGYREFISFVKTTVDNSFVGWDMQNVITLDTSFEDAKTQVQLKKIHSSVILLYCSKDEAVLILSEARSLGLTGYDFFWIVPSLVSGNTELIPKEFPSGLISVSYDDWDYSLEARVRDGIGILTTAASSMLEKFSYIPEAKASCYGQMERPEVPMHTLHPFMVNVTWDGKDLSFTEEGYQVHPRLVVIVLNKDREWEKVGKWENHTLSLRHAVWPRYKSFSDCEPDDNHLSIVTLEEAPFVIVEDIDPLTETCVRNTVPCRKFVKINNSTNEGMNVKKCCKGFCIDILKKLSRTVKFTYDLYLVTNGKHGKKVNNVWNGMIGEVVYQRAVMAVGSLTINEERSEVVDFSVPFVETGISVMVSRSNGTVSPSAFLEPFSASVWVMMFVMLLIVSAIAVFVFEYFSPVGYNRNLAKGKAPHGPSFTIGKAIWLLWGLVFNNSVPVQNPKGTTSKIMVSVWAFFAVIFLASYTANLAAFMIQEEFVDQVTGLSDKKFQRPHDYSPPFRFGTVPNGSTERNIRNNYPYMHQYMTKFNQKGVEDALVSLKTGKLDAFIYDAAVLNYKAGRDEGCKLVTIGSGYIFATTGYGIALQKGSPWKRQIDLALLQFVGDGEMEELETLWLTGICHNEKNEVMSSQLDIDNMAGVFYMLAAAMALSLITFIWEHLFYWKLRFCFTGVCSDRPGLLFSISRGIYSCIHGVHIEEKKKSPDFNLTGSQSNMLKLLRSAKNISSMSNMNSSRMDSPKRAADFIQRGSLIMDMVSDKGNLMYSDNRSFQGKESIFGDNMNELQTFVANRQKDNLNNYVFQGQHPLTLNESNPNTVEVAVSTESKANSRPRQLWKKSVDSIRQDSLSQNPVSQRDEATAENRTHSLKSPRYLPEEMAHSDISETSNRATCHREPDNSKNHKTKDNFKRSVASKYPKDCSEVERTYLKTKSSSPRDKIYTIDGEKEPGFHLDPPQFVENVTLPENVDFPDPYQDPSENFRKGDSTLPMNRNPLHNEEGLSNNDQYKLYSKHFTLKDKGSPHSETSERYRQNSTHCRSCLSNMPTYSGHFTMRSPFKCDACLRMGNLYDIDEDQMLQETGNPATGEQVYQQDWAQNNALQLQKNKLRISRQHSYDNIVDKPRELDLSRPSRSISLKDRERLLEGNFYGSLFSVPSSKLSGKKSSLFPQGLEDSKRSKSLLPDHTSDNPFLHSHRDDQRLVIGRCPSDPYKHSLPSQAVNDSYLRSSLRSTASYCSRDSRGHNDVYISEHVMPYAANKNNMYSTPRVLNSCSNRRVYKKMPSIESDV

[3] = Bioavailability and CSF/brain/plasma exposure after PO administration; format: in vivo, Sprague Dawley rats; settings: rat; for Kp: male, Sprague Dawley, 10 mg/kg PO
Protocol: The bioavailablity of Compound BB was investigated following PO administration. CSF, brain and plasma samples were analyzed following dosing with compound BB (10 mg/kg). The following table indicates the bioavailablity and CSF/plasma and brain/plasma ratios.
Sprague Dawley rats were dosed intravenously with 2 mg/kg of Compound AA. A second group of Sprague Dawley rats was dosed per os with 10 mg/kg of compound AA. Plasma samples were drawn over a 24 h period and analyzed for Compound AA. FIG. 3A presents the mean plasma concentration-time profile of Compound AA following the single intraveneous (2 mg/kg) and oral (10 mg/kg) dose administration in male Sprague Dawley rats over the 24 hour period.
In another experiment. Sprague Dawley rats were dosed intravenously with 2 mg/kg of Compound BB. A second group of Sprague Dawley rats was dosed per os with 10 mg/kg of compound BB. Plasma samples were drawn over a 24 h period and analyzed for Compound BB. FIG. 3B presents the mean plasma concentration-time profile of Compound BB following the single intraveneous (2 mg/kg) and oral (10 mg/kg) dose administration in male Sprague Dawley rats over the 24 hour period.
In another experiment, Sprague Dawley rats were dosed per os with 10 mg/kg of Compound BB. Plasma, brain, and CSF samples were analyzed at various time points over a 24 hour period.

Plasma stability, human = format: in vitro ADME
Protocol: Plasma stability for Compound AA and Compound BB was investigated. The following table indicates the percent of Compound AA and Compound BB remaining after 60 minutes.

[4] = Plasma protein binding assay, rat; format: in vitro ADME; settings: read-out: Plasma Protein binding (% Bound) Plasma rat (converted)
Protocol: as §1

SD rats = experiment: Novelty-induced hypophagia (NIH) test; format: in vivo, rat; settings: 1-100 μg/kg PO, 1 h before test
Source text: This Example relates to the assessment of the anxiolytic effect of treatment in the stress-induced anxiety model, novelty induced hypophagia. This assay is also sensitive to the rapid acting antidepressants ketamine and GLYX-13 (Li et al., “mTOR-dependent synapse formation underlies the rapid antidepressant effects of NMDA antagonists,” Science 329:959-964, 2010; and Burgdorf et al., 2013). See also Bodnoff et al., “A comparison of the effects of diazepam versus several typical and atypical anti-depressant drugs in an animal model of anxiety,” Psychopharmacology, 97:277-279, 1989.
Testing was conducted as described by (Burgdorf et al., 2013). […] Animals were food deprived overnight before testing, and lab chow was placed in the center chamber of an open field (40×40×20 cm) for 10 min under dim red lighting. Between testing each animal, feces and urine were removed from the apparatus. After NIH testing, the latency to eat in the animal's home cage was determined as a control to ensure the effect on eating is specific to the novel environment. Animals were videotaped, and latency (sec) for the animal to take the first bite of food was manually scored offline.
A single point per dose group that was 2 or more standard deviations from the mean was considered an outlier and was excluded from the data analysis. […]

## C[C@@H](O)[C@@H](C(N)=O)N1C[C@@]2(CCCN2S(C)(=O)=O)C1=O [Compound BB, (2S,3R)-3-hydroxy-2-((S)-5-(methylsulfonyl)-1-oxo-2,5-diazaspiro[3,4]octan-2-yl)butanamide]
[1]
  Microsomal Stability (% remaining at 60 min) Rat: 96%
rat
  positive emotional learning as measured by rat USVs: increases positive emotional learning
[2]
  fraction unbound: 0.789
NR2A; potentiation of [3H]MK-801 binding
  NR2A A (%) (activity): 0%
NR2A; relative to 1 mM glycine
  NMDAR2A BINDING PROFILE % 1 mM Glycine: 0%
NR2A; statement in description
  binding to NR2A (in words): substantially no binding
NR2A; wild-type NMDAR2A
  NMDAR2A BINDING PROFILE Conclusion: WT2A no
[3]; CSF, read-out: CSF/plasma ratio
  Kp: 0.48
[3]; brain, read-out: Brain/plasma ratio
  Kp: 0.12
[3]; plasma, PO administration (10 mg/kg PO, 2 mg/kg IV), male Sprague Dawley rats, read-out: Bioavailablity (% F)
  bioavailability: 82%
Plasma stability, human
  Plasma Stability (% remaining at 60 min) Human: 81%
[4]
  fraction unbound: 0.65
SD rats
  latency to eat in the novelty-induced hypophagia (NIH) test: produces an anxiolytic effect
